From patent US20090304674A1, “METHODS FOR TREATING DISEASE BY REGULATING CLL CELL SURVIVAL” (priority 2005, published 2009)
“Also recorded” adds a separate entry of the source.

What was measured:
Type in all cases: cell-based, human
[1] = system: p44/42 MAPK (ERK1/2) in CLL B cells; test: Immunoblot of ERK1/2 phosphorylation in CLL B cells; settings: SDF-1α 200 ng/ml; for induction of phosphorylation of ERK1/2: 3 or 10 minutes, rhBAFF 50 ng/ml
Procedure: (§1) Cell lysates were prepared with RIPA buffer (10 mM Tris (pH 7.4), 150 mM NaCl, 1% Triton x 100, 1% deoxycholate, 0.1% SDS, 5 mM EDTA), containing 1 mM PMSF, 0.28 TIU/ml aprotinin, 50 μg/ml leupeptin, 1 mM benzamidine, 0.7 μg/ml pepstatin. Lysates were normalized for total protein (20 μg), subjected to SDS-PAGE (4-15% gradient gels, Bio-Rad, Hercules, Calif.) and immunoblot assay. We incubated the blots with secondary antibodies that were conjugated with horseradish peroxidase. Blots then were prepared for enhanced chemiluminescence (ECL) detection system (Amersham, Little Chalfont, Buckinghamshire, UK) and subsequent autoradiography with Super RX film (Fuji, Tokyo, Japan). The mouse mAb against APRIL (APRIL8) was from Alexis Biochemicals. The mouse mAb against inhibitor of kappa B-α (IκκBα was from Imgenex (San Diego, Calif.). The antibodies against anti-phosho-MAP kinase Erk1/2 and anti-MAP kinase Erk1/2-CT were purchased from Upstate Biotechnology. Antibodies against AKT or phospho-AKT (Ser473) were from Cell Signaling (Beverly, Mass.). Rabbit polyclonal antibodies (Mcl-1, Bcl-2, and Bax) were raised against synthetic peptides.21 Also primary antibodies included β-actin (Sigma Immunochemicals, St Louis, Mo.). Anti-p52 and anti-p65 antibodies were purchased from Upstate Biotechnology.

AKT in CLL B cells = test: Immunoblot of AKT (Ser473) phosphorylation in CLL B cells; settings: SDF-1α 200 ng/ml; for induction of phosphorylation/activation of AKT (Ser473): 3 or 10 minutes, rhBAFF 50 ng/ml
Procedure: as §1

[2] = system: canonical NF-κB1 pathway in CLL B cells; test: Immunoblot of canonical NF-κB1 pathway activation (IκBα degradation/phosphorylation, p65 nuclear translocation) in CLL B cells; settings: concentrations that promote CLL cell survival; rhBAFF 50 ng/ml, rhAPRIL 500 ng/ml
Procedure: as §1
For fractionation experiments, cells were collected by centrifugation and washed with PBS. The cell pellet containing 5×10^6 cells was suspended in 100 μl of hypotonic buffer (50 mM Tris (pH7.4), 5 mM EDTA, 10 mM NaCl, 0.05% NP-40, 1 mM PMSF, 10 μg/ml Aprotinin, 10 μg/ml Leupeptin, 10 μg/ml Pepstatin, 10 mM β-Glycerophosphate, 1 mM Na-Vanadate, 1 mM NaF). After 10 minutes the lysate was spun and the supernatant was collected as cytoplasmic lysates. The pellet was washed 5 times in hypotonic buffer containing 0.1% NP-40. The remaining pellet was suspended in 100 μl RIPA buffer containing protease and phosphatase inhibitors. After an appropriate amount of 3× sample buffer (200 mM Tris (pH 6.8), 30 mM EDTA, 30% Glycerol, 6% SDS) was added, the sample was boiled for 10 minutes, spun for 10 minutes and the supernatant was recovered as nucleus lysates. Anti-NF kappa B p52 and p65 were purchased from Upstate Biotechnology. Anti-SP-1 was purchased from Santa Cruz Biotechnology (Santa Cruz, Calif.).
Cell lysates were prepared with radioimmunoprecipitation assay (RIPA) buffer (10 mM Tris [pH 7.4], 150 mM NaCl, 1% Triton X-100, 0.1% deoxycholate, 0.1% SDS, 5 mM EDTA), containing 1× complete protease inhibitor cocktail (Roche diagnostics), 1 mM sodium fluoride (NaF), and 1 mM sodium vanadate (Na3VO4). Lysates were normalized for total protein (25 μg) and subjected to SDS-PAGE (4-15% gradient gels, Bio-Rad, Hercules, Calif.) and immunoblot assay. We incubated the blots with secondary antibodies that were conjugated with horseradish peroxidase. Blots then were prepared for enhanced chemiluminescence (ECL) detection system (Amersham, Little Chalfont, United Kingdom) and subsequent autoradiography with Super RX film (Fuji, Tokyo, Japan).
For fractionation experiments, cells were collected by centrifugation and washed with PBS. The cell pellet containing 5×10^6 cells was suspended in 100 μl of hypotonic buffer (50 mM Tris [pH7.4], 5 mM EDTA, 10 mM NaCl, 0.05% Nonidet P40 [NP-40]), containing 1× complete protease inhibitor cocktail, 1 mM NaF, and 1 mM Na3VO4. After 10 minutes, the lysate was spun and the supernatant was collected as cytoplasmic lysates. […]

[3] = system: isolated CD19+ CLL B cells; test: Viability of isolated CLL B cells cultured without NLC (DiOC6/PI flow cytometry); settings: rhBAFF 50 ng/ml, rhAPRIL 500 ng/ml; samples of 3 patients
Procedure: (§2) Freshly thawed CLL B cells were cultured at the concentration of 1×10^6/ml under various conditions. Determination of CLL cell viability in this study was based on the analysis of mitochondrial transmembrane potential (Δψm) using 3,3′-dehexyloxacarbocyamine iodine (DiOC6) and cell membrane permeability to PI, as described.22 For viability assays, 100 μl of the cell culture was collected at the indicated time points and transferred to polypropylene tubes containing 100 μl of 60 nmol/l DiOC6 (Molecular Probes) and 10 μg/ml PI in FACS buffer. The cells then were incubated at 37° C. for 15 minutes and analyzed within 30 minutes by flow cytometry using a FACSCalibur (Becton Dickinson). Fluorescence was recorded at 525 nm (FL-1) for DiOC6 and at 600 nm (FL-3) for PI.

[4] = system: NF-κB1 binding activity in CLL cells; test: Electrophoretic mobility shift assay of NF-κB DNA binding in nuclear extracts of CLL cells; settings: rhBAFF 50 ng/ml or rhAPRIL 500 ng/ml, 24 hours
Procedure: Nuclear proteins were extracted using a nuclear extraction kit (Pierce, Rockford, Ill.) in presence of 1× complete protease inhibitor cocktail (Roche diagnostics). Total protein was measured using a modified Bradford test (Bio-Rad, Hercules, Calif.). 2 μg of nuclear protein extracts were incubated on ice for 30 min with antibodies to p50 and p65 (Santa Cruz Biotechnology). Later, a radiolabeled double stranded probe that encompassed the κB1 site was added, followed by incubation at room temperature for 30 min. Samples were loaded on a 6% acrylamide gel and run at 150 volts for three and a half hours.

[5] = system: NF-κB2/p100 pathway in CLL B cells; test: Immunoblot of alternative NF-κB2 pathway activation (p100 to p52, p52 nuclear translocation) in CLL B cells; settings: concentrations that promote CLL cell survival; rhBAFF 50 ng/ml, rhAPRIL 500 ng/ml, 24 hours
Procedure: as §1
For fractionation experiments, cells were collected by centrifugation and washed with PBS. The cell pellet containing 5×10^6 cells was suspended in 100 μl of hypotonic buffer (50 mM Tris (pH7.4), 5 mM EDTA, 10 mM NaCl, 0.05% NP-40, 1 mM PMSF, 10 μg/ml Aprotinin, 10 μg/ml Leupeptin, 10 μg/ml Pepstatin, 10 mM β-Glycerophosphate, 1 mM Na-Vanadate, 1 mM NaF). After 10 minutes the lysate was spun and the supernatant was collected as cytoplasmic lysates. The pellet was washed 5 times in hypotonic buffer containing 0.1% NP-40. The remaining pellet was suspended in 100 μl RIPA buffer containing protease and phosphatase inhibitors. […]

Mcl-1 in CLL B cells = test: Immunoblot of Mcl-1 expression in CLL B cells; settings: short-term culture of isolated CLL B cells
Procedure: as §1

transfected CLL cells = test: Viability of CLL cells transfected with SR-IκBα or control vector (Amaxa nucleofection); settings: rhBAFF 50 ng/ml or rhAPRIL 500 ng/ml for 24 hours, added four hours after transfection
Procedure: as §2, with “of 1×10^6/mL” for “of 1×10^6/ml”, “as described.” for “as described.22”, “of 80” for “of 60”, “and 2” for “and 10”
CLL cells were transfected using the Amaxa nucleofection technology (Amaxa). Cells were resuspended in solution from human B cell nucleofector kit, also available as part of Amaxa cell optimization kit, according to the manufacturer's instructions. Briefly, 100 μl of 5×10^6 cell suspension mixed with 5 μg cDNA was transferred to the provided cuvette and nucleofected with an Amaxa Nucleofector apparatus (Amaxa). Cells were transfected using the U-15 pulsing parameter and immediately transferred into wells containing 37° C. pre-warmed culture medium in 12-well plates. After transfection, cells were cultured from 4 to 48 hours before analyzing by FACS. pmaxGFP was used to gauge transfection efficiency.

[6] = system: Bcl-2, Bax, Bcl-xL in CLL B cells; test: Immunoblot of Bcl-2, Bax, Bcl-xL expression in CLL B cells; settings: short-term culture of isolated CLL B cells
Procedure: as §1

[7] = 3 minutes, 4F at 50 nM or 500 nM

4F-benzoyl-TE14011 [reference compound]
block of SDF-1α-induced phosphorylation of ERK1/2 [1, 7]: could be blocked | block of SDF-1α-induced phosphorylation of AKT at Ser473 (AKT in CLL B cells; [7]): could be blocked

rhAPRIL: recombinant human a proliferation-inducing ligand, purchased from Alexis Biochemicals
activation of classical/canonical NF-κB pathway (IκBα degradation, p65 translocation to nucleus) [2]: induced degradation of the inhibitor of kappa B (IκBα) and translocation of p65 to the nuclear fraction; also recorded: induced translocation of p65 to the nucleus | viability of isolated CLL cells cultured without NLC versus control [3]: significant greater than that of control treated CLL cells; also recorded: significantly improved the viability of CLL cells | NF-κB consensus motif binding proteins in nuclear extracts (EMSA) [4]: increased amounts of proteins capable of binding NF-κB consensus motifs | activation of NF-κB2 (processing of p100 to p52, translocation of p52 to the nucleus) [5]: did not observe activation of NF-κB2; also recorded: did not observe translocation of p52 to the nucleus | induction of phosphorylation of ERK1/2 [1]: could not induce phosphorylation of p44/42 mitogen-activated phosphokinase (MAPK, ERK1/2) | induction of Mcl-1 expression in CLL B cells (Mcl-1 in CLL B cells): induced to express increased levels of Mcl-1 | viability of CLL cells transfected with SR-IκBα (transfected CLL cells): had no effect on CLL cells transfected with SR-IκBα | viability of CLL cells transfected with control expression plasmid (transfected CLL cells): significantly enhanced the viability of the cells transfected with the control expression plasmid | induction of phosphorylation/activation of AKT (Ser473) (AKT in CLL B cells): could not induce

rhBAFF: recombinant human B cell-activating factor of the TNF family
activation of classical/canonical NF-κB pathway (IκBα degradation, p65 translocation to nucleus) [2]: induced degradation of the inhibitor of kappa B (IκBα) and translocation of p65 to the nuclear fraction; also recorded: induced translocation of p65 to the nucleus | viability of isolated CLL cells cultured without NLC versus control [3]: significant greater than that of control treated CLL cells; also recorded: significantly improved the viability of CLL cells | NF-κB consensus motif binding proteins in nuclear extracts (EMSA) [4]: increased amounts of proteins capable of binding NF-κB consensus motifs | activation of NF-κB2 (processing of p100 to p52, translocation of p52 to the nucleus) [5]: could induce activation of NF-κB2; also recorded: could induce translocation of p52 to the nucleus | changes in levels of Bcl-2, Bax, or Bcl-xL [6]: did not observe significant changes | induction of phosphorylation of ERK1/2 [1]: could not induce phosphorylation of p44/42 mitogen-activated phosphokinase (MAPK, ERK1/2) | induction of Mcl-1 expression in CLL B cells (Mcl-1 in CLL B cells): induced to express increased levels of Mcl-1 | viability of CLL cells transfected with SR-IκBα (transfected CLL cells): had no effect on CLL cells transfected with SR-IκBα | viability of CLL cells transfected with control expression plasmid (transfected CLL cells): significantly enhanced the viability of the cells transfected with the control expression plasmid | induction of phosphorylation/activation of AKT (Ser473) (AKT in CLL B cells): could not induce

SDF-1α
activation of classical/canonical NF-κB pathway (IκBα degradation, p65 translocation to nucleus) [2]: did not have this activity | activation of NF-κB2 (processing of p100 to p52, translocation of p52 to the nucleus) [5]: did not observe activation of NF-κB2 | changes in levels of Bcl-2, Bax, or Bcl-xL [6]: did not observe significant changes | induction of phosphorylation of ERK1/2 [1]: induced phosphorylation of ERK1/2 | induction of Mcl-1 expression in CLL B cells (Mcl-1 in CLL B cells): could not induce isolated CLL B cells to express higher levels of Mcl-1 | induction of phosphorylation/activation of AKT (Ser473) (AKT in CLL B cells): induced phosphorylation of AKT at Ser473
